Molecules are shown by their SMILES.

The subject of assay [1] is Male DIO mice. Description: In vivo evaluation for glucose disposal and lipidemia in DIO mice (Example 11). The settings on record: for change in body weight from baseline: 30 days; for Cholesterol / HDL / LDL / NEFA / Triglycerides: terminal (fed) serum; for Fasting blood glucose levels (time 0 from OGTT): 28 days, 16 hour fast; for glucose AUC (0-120 min): OGTT day 28, glucose 2.0 g/kg PO. On the procedure: The DIO mice were prepared by feeding male C57BL/6 mice a high fat diet (HFD, Research Diets D12492) from 6-14 weeks of age. DIO mice were housed individually and maintained on the HFD through the duration of study. A twelve-hour light cycle was maintained with room temperature maintained at 22-25° C. All of the mice were acclimated to the facility for 5 days prior to starting the study.
Following 5 days of facility acclimation, DIO mice were randomized into 8 groups of 10 based on body weight and blood glucose for assignment to treatment, as shown in Table 9:
All treatments were administered admixed in HFD (Research Diets, New Brunswick N.J.) and were provided ad libitum for 30 days. Drinking water for group 7 was supplemented with 1, 3 Butanediol at 3% concentration.
Body weight was recorded at baseline and twice weekly thereafter. Feed and water intakes were recorded each Monday, Wednesday, and Friday.
Blood samples (<3 μL) were obtained one hour post dose by tail clip at baseline and weekly thereafter for measurement of fed blood glucose by StatStrip. Additional anti-coagulated blood samples (100 μl, EDTA di-potassium salt) were obtained by tail clip one hour post-dose at baseline, day 14 and day 30. Anti-coagulated samples were quick frozen and stored on dry ice.
Animals were subjected to a 16 hour fast for performance of an oral glucose tolerance test (OGTT) on day 28. Blood samples were obtained via tail clip just prior to (8 am) and 15, 30, 60, 90, and 120 minutes post-glucose load (2.0 g/kg, PO) for assay of whole blood glucose (StatStrip). Feed was returned following last sample.
Animals were terminated on day 30-31 using CO2 inhalation and induction of pneumothorax. Terminal blood samples were obtained by cardiac puncture. Whole blood was processed to serum and analyzed for serum cholesterol, triglycerides, high density lipoprotein (HDL), low density lipoprotein (LDL) and non-esterified fatty acids (NEFA) using AU480 clinical analyzer.
Organ weights (liver, spleen, subcutaneous fat, inguinal fat, abdominal fat, and epididymal fat) were recorded. Sections of each fat were frozen or fixed in 4% paraformaldehyde/PBS, pH 6.9; Fat samples were placed on dry ice. Fixed liver samples (4% paraformaldehyde) were sent to Premier Laboratories for H&E staining and scoring for steatosis, inflammation and fibrosis. Spleen samples were prepared in ice cold 5% bovine serum albumin (BSA) in PBS or 4% paraformaldehyde. Sections of brain, heart, lung, and small and large intestine were fixed in 10% formalin.
All data are represented as group mean±SEM. Data were analyzed using JMP (SAS software). All normalizations were calculated using terminal body weight.
Baseline differences among groups were identified using Tukey-Kramer Hsd<0.05. Treatment effects compared to control were determined using Oneway ANOVA (*, p<0.05) followed by Dunnett's test where appropriate.

Assay [2] concerns C57BL/6 DIO mice. Description: DIO animal model of NAFLD/NASH in young mice (Example 16). In kind it is in vivo. More on the design: OGTT: unit not given beside the values. The settings on record: ad libitum in HFD; for % Weight change: 12 weeks; for OGTT: Day 82, 2 g/kg glucose PO; for OGTT / % HbA1c: ctrl HFD; for % Difference compared to ctrl: weight change vs HFD ctrl. The text has this: Species (number, sex, age/weight): C57BL/6 DIO mice (120+10 spares, male, ˜18 weeks of age) from Jackson Laboratories, Stock #380050. Note: 18 week old DIO mice sent sent with a minimum body weight of 39 grams. Spare animals may be used to replace study animals, as required, euthanized after completion of dose administration or transferred to Testing Facility Docket 07-12.
Cage Side Observations (Animal Health Checks): Cage side animal's health checks will be performed at least once daily to check for general health, mortality and moribundity. Clinical Observations: Clinical observations will be performed per exception. Body Weights: Body weights for all animals will be recorded prior to Day 1 and at least twice weekly thereafter, including prior to necropsy ([…]).
Dose Administration: Dosing for Groups 3-8 will be provided ad libitum in the diet. Dosing for Groups 9 (Saline) and 10 (Semaglutide at 123.4 μg/kg) in a 5 mL/kg volume, will begin on Day 1, and be performed 3 times weekly for 12 weeks by SC administration. Residual Test Article: All residual high fat diets will be frozen at nominally −20° C., and at the end of the study, several pellets of the diets for groups 2-9 (in 50-ml conical tubes) will be shipped to Sponsor, and the rest will be discarded. Residual control diets (group 1) will be stored ambient, and at the end of the study, several pellets in a 50 mL conical tube will be shipped to Sponsor and the rest is discarded. Residual test material for Group 10 will be stored at nominally −70° C., and at the end of the study, an aliquot of test material will be shipped to Sponsor, and the rest will be discarded.
Oral Glucose Tolerance Test (oGTT) On Day 82 (+/−2 days) an oGTT will be performed. Following an approximate 4 hour fast, 2 g/kg glucose (50% Dextrose diluted in sterile water for injection to a concentration of 0.4 g/mL) will be administered at 5 mL/kg via oral gavage (PO). Blood will be collected pre-glucose challenge (t=0) and at t=15, 30, 60, 90, and 120 minutes following the glucose challenge. Whole blood glucose levels will be evaluated at all time points using a handheld glucometer and will be reported in the Data Submission. This will be scheduled on a Tuesday or Thursday to avoid Group 9/10 dosing days.
Oral Glucose Tolerance Test (oGTT) On Day 82 (+/−2 days) an oGTT will be performed. Following an approximate 4 hour fast, 2 g/kg glucose (50% Dextrose diluted in sterile water for injection to a concentration of 0.4 g/mL) will be administered at 5 mL/kg via oral gavage (PO). Blood will be collected pre-glucose challenge (t=0) and at t=15, 30, 60, 90, and 120 minutes following the glucose challenge. Whole blood glucose levels will be evaluated at all time points using a handheld glucometer and will be reported in the Data Submission.

Regarding `CC(=O)Oc1cc(OC(C)=O)c2c(c1)O[C@H](c1cc(OC(C)=O)c(OC(C)=O)c(OC(C)=O)c1)[C@H](OC(=O)c1cc(OC(C)=O)c(OC(C)=O)c(OC(C)=O)c1)C2` [Compound 4, [(2R,3R)-5,7-diacetoxy-2-(3,4,5-triacetoxyphenyl)chroman-3-yl] 3,4,5-triacetoxybenzoate], in assay [1] (0.6% in HFD), the “Abdominal fat (% BW)” value came out at 2.1 ± 0.2 % BW, the “Blood glucose (fed) change compared to baseline” value (shortened to “Blood glucose (fed) change”) is listed as −15.6±3.1%, the “Epididymal fat (% BW)” value is on record as 4.7 ± 0.2 % BW and the “Inguinal fat (% BW)” value amounted to 0.99 ± 0.17 % BW. Moreover, in assay [1] (0.6% in HFD), the “Subcutaneous fat (% BW)” value is given as 4.9 ± 0.4 % BW, the “change in body weight from baseline” value is given as 13.5±2.0%, the Cholesterol came out at 193.9 ± 11.0 mg/dL and the HDL is 94.4 ± 4.0 mg/dL. In assay [1] (0.6% in HFD), the LDL is recorded as 9.2 ± 0.9 mg/dL, the NEFA turned out to be 1.2 ± 0.04 mEq/L and the Triglycerides was determined as 97.7 ± 10.1 mg/dL. Also, in assay [1] (2% in HFD), the “Abdominal fat (% BW)” value is reported as 2.4 ± 0.1 % BW, the “Blood glucose (fed) change” value is listed as −9.0±3.9%, the “Epididymal fat (% BW)” value turned out to be 4.5 ± 0.2 % BW and the “Inguinal fat (% BW)” value is given as 0.93 ± 0.08 % BW. In assay [1] (2% in HFD), the “Subcutaneous fat (% BW)” value stood at 5.5 ± 0.5 % BW, the “change in body weight from baseline” value turned out to be 16.4±1.1%, the Cholesterol is reported as 208.2 ± 7.2 mg/dL and the HDL was 99.0 ± 3.6 mg/dL. In assay [1] (2% in HFD), this molecule registered an LDL of 10.7 ± 0.9 mg/dL, an NEFA of 1.2 ± 0.06 mEq/L and a Triglycerides of 91.1 ± 8.4 mg/dL. Also, in assay [1] (6% in HFD), the “Abdominal fat (% BW)” value was 2.2 ± 0.1 % BW, the “Blood glucose (fed) change” value is on record as −4.3±3.0%, the “Epididymal fat (% BW)” value amounted to 4.7 ± 0.3 % BW and the “Inguinal fat (% BW)” value came out at 0.95 ± 0.08 % BW. In assay [1] (6% in HFD), the “Subcutaneous fat (% BW)” value came out at 5.0 ± 0.6 % BW, the “change in body weight from baseline” value is on record as 15.7±1.0%, the Cholesterol is reported as 200.4 ± 14.2 mg/dL and the HDL was 91.5 ± 5.1 mg/dL. In assay [1] (6% in HFD), this molecule came in with an LDL of 12.3 ± 0.9 mg/dL, an NEFA of 1.1 ± 0.04 mEq/L and a Triglycerides of 89.9 ± 5.7 mg/dL. Also, in assay [2], the “% Weight change” value amounted to 19%, the OGTT is 25072, the “% HbA1c” value was found to be 4.89% and the “% Difference compared to ctrl” value was −4%.

Consider `CC(=O)Oc1cc(OC(C)=O)c2c(=O)c(OC(C)=O)c(-c3ccc(OC(C)=O)c(OC(C)=O)c3)oc2c1` [Compound 14, [2-acetoxy-4-(3,5,7-triacetoxy-4-oxo-chromen-2-yl)phenyl] acetate], for which, in assay [1] (6% in HFD), the “Abdominal fat (% BW)” value is reported as “*0.98 ± 0.2 % BW”, the “Blood glucose (fed) change” value was −23.1±4.9%, the “Epididymal fat (% BW)” value is reported as “*2.6 ± 0.3 % BW” and the “Inguinal fat (% BW)” value was “*0.40 ± 0.06 % BW”. For the same molecule, in assay [1] (6% in HFD), the “Subcutaneous fat (% BW)” value is recorded as “*2.2 ± 0.4 % BW”, the “Fasting blood glucose levels (time 0 from OGTT)” value was determined as 63.1 ± 1.9 mg/dL, the “change in body weight from baseline” value was −11.9±1.3% and the “glucose AUC (0-120 min)” value is 25720.5 ± 895.5 mg/dL/min. For the same molecule, in assay [1] (6% in HFD), the Cholesterol entry is given as “*121.5 ± 9.4 mg/dL”, the HDL was 79.4 ± 4.0 mg/dL, the LDL result is given as “*4.9 ± 0.4 mg/dL” and the NEFA entry is “*0.69 ± 0.03 mEq/L”. Besides, in assay [1] (6% in HFD), the Triglycerides entry is “*64.0 ± 2.8 mg/dL”. Further, in assay [2], the “% Weight change” value worked out at 16%, the OGTT is 32591, the “% HbA1c” value is on record as 6.93% and the “% Difference compared to ctrl” value is listed as −7%.

Consider `CC(=O)O[C@H]1OC[C@H](OC(C)=O)[C@H](OC(C)=O)[C@H]1OC(C)=O` [Compound 53, (2R,3R,4S,5S)-tetrahydro-2H-pyran-2,3,4,5-tetrayl Tetraacetate], for which, in assay [1] (5% in HFD), the “Abdominal fat (% BW)” value is listed as “*1.9 ± 0.2 % BW”, the “Blood glucose (fed) change” value is given as −12.5±2.2%, the “Epididymal fat (% BW)” value came out at 4.1 ± 0.4 % BW and the “Inguinal fat (% BW)” value is 0.84 ± 0.11 % BW. In addition, in assay [1] (5% in HFD), the “Subcutaneous fat (% BW)” value came to 4.0 ± 0.6 % BW, the “Fasting blood glucose levels (time 0 from OGTT)” value was 90.8 ± 5.7 mg/dL, the “change in body weight from baseline” value is listed as −1.8±3.2% and the “glucose AUC (0-120 min)” value amounted to 30151.5 ± 1680 mg/dL/min. Further, in assay [1] (5% in HFD), the Cholesterol stood at 163.3 ± 10.3 mg/dL, the HDL was found to be 88.9 ± 2.7 mg/dL, the LDL entry is recorded as “*6.5 ± 0.7 mg/dL” and the NEFA entry is “*0.98 ± 0.05 mEq/L”. Also, in assay [1] (5% in HFD), the Triglycerides came to 84.8 ± 5.5 mg/dL. For the same molecule, in assay [2], the “% Weight change” value worked out at 10%, the OGTT came to 25779, the “% HbA1c” value is given as 4.35% and the “% Difference compared to ctrl” value was −13%.

For the origin of these results see US10953027B2, “Active agents and methods of their use for the treatment of metabolic disorders and nonalcoholic fatty liver disease” (Flagship Pioneering Innovations V, Inc., priority 2018, dated 2021).
